Results: patent US11331299B2, “Medicinal use of serrulatane diterpenes” (The University of Sydney, priority 2016, dated 2022)
Like-named read-outs stand apart in the source and are kept apart here.

System: 280 human cancer cell lines
Assay: OncoPanel cell proliferation assay (10-day)
Format: cell-based
Details: Homo sapiens; for GI50: read-out: Cell Count GI50; for IC50: read-out: Cell Count IC50; for EC50: read-out: Cell Count EC50
[1] = C-4-II, C-4 II, Female GU - Cervix
[2] = C-33-A, C-33A, Female GU - Cervix
[3] = CAL-62, CAL-62, Endocrine - Thyroid
[4] = CCF-STTG1, CCF-STTG1, CNS - Glioma
[5] = CGTH-W-1, CGTH-W-1, Endocrine - Thyroid
[6] = CHP-212, CHP-212, CNS - Neuroblastoma
[7] = COLO-320-HSR, Colo 320 HSR, Colon
[8] = COLO-829, COLO 829, Skin (Melanoma)
[9] = COR-L105, COR-L105, Lung - NSCLC
[10] = Ca-Ski, Ca Ski, Female GU - Ovary

## CC(C)=CCC[C@H](C)[C@@H]1CC[C@@H](C)c2c1cc(C)c(O)c2O [Compound 4, 7,8-dihydroxyserrulat-14-ene]
BT-474, BT474, Breast
  GI50: 25 µM
  IC50: 25.7 µM
BT-549, BT-549, Breast
  EC50: 15.3 µM
  GI50: 15.1 µM
  IC50: 15.3 µM
BV-173, BV-173, Leukemia
  EC50: 3.56 µM
  GI50: 3.55 µM
  IC50: 3.56 µM
BXPC-3, BxPC-3, Pancreas
  EC50: 13.4 µM
  GI50: 13.4 µM
  IC50: 13.4 µM
BeWo, Placenta
  EC50: 15.6 µM
  GI50: 15.5 µM
  IC50: 15.6 µM
C32, Skin (Melanoma)
  EC50: 7.84 µM
  GI50: 6.37 µM
  IC50: 7.84 µM
[1]
  EC50: 12.6 µM
  GI50: 12.5 µM
  IC50: 12.6 µM
[2]
  EC50: 9.57 µM
  GI50: 9.42 µM
  IC50: 9.57 µM
CA46, CA46, Lymphoma
  EC50: 4.06 µM
  GI50: 4.06 µM
  IC50: 4.06 µM
CAKI-1, Caki-1, Kidney
  EC50: 14.4 µM
  GI50: 14.1 µM
  IC50: 14.4 µM
CAKI-2, Caki-2, Kidney
  EC50: 13.1 µM
  GI50: 13.5 µM
  IC50: 13.6 µM
CAL-27, Cal 27, Head and Neck
  EC50: 12.3 µM
  GI50: 12.2 µM
  IC50: 12.3 µM
[3]
  EC50: 5.36 µM
  GI50: 5.36 µM
  IC50: 5.36 µM
CAMA-1, CAMA-1, Breast
  EC50: > 30 µM
  GI50: > 30 µM
  IC50: > 30 µM
CAPAN-1, Capan-1, Pancreas
  EC50: > 30 µM
  GI50: > 30 µM
  IC50: > 30 µM
[4]
  EC50: 19.7 µM
  GI50: 16 µM
  IC50: 19.7 µM
CCRF-CEM, CCRFCEM, Leukemia
  EC50: 4.92 µM
  GI50: 4.91 µM
  IC50: 4.93 µM
CEM/C1, CEM-C1, Leukemia
  EC50: 1.47 µM
  GI50: 1.47 µM
  IC50: 1.47 µM
CFPAC-1, CFPAC-1, Pancreas
  EC50: 25.2 µM
  GI50: 25.1 µM
  IC50: 25.2 µM
[5]
  EC50: 3.45 µM
  GI50: 3.47 µM
  IC50: 3.48 µM
CHL-1, CHL-1, Skin (Melanoma)
  EC50: 11.9 µM
  GI50: 11.8 µM
  IC50: 11.9 µM
[6]
  EC50: 9.77 µM
  GI50: 9.74 µM
  IC50: 9.78 µM
CML-T1, CML-T1, Leukemia
  EC50: 3.93 µM
  GI50: 3.93 µM
  IC50: 3.93 µM
COLO 201, Colo 201, Colon
  EC50: 4.07 µM
  GI50: 4.04 µM
  IC50: 4.07 µM
COLO 205, Colo 205, Colon
  EC50: 11.9 µM
  GI50: 11.9 µM
  IC50: 11.9 µM
COLO 320DM, Colon
  EC50: 7.91 µM
  GI50: 7.87 µM
  IC50: 7.91 µM
[7]
  EC50: 5.15 µM
  GI50: 5.15 µM
  IC50: 5.16 µM
[8]
  EC50: 3.71 µM
  GI50: 3.29 µM
  IC50: 3.71 µM
COR-L23, COR-L23, Lung - NSCLC
  EC50: 13.3 µM
  GI50: 13.2 µM
  IC50: 13.3 µM
[9]
  EC50: 8.66 µM
  GI50: 8.47 µM
  IC50: 8.66 µM
CRO-AP2, CRO-AP2, Lymphoma
  EC50: 9.94 µM
  GI50: 9.88 µM
  IC50: 9.94 µM
[10]
  EC50: 17.6 µM
  GI50: 17.6 µM
  IC50: 17.6 µM
Calu-1, Calu1, Lung - NSCLC
  EC50: 8.88 µM
  GI50: 8.77 µM
  IC50: 8.88 µM
Calu-6, Calu6, Lung - NSCLC
  EC50: 25 µM
  GI50: 24.5 µM
  IC50: 25 µM
